According to ChEMBL document CHEMBL3865811, “Synthesis and biological activities of d-chiro-inositol analogues with insulin-like actions” (2016):

Legend:
3T3-L1 [1] = experiment: Induction of 2-deoxy-D-[2,6-3H]glucose uptake in differentiated mouse 3T3L1 cells at 200 uM after 60 mins by liquid scintillation counting relative to basal uptake; type: functional
3T3-L1 [2] = experiment: Induction of 2-deoxy-D-[2,6-3H]glucose uptake in differentiated mouse 3T3L1 cells at 200 uM after 60 mins by liquid scintillation counting relative to insulin; type: functional

Compound: CCCCO[C@H]1[C@H](O)[C@H](O)[C@@H](O)[C@H](O)[C@H]1O
- fold change (FC) (3T3-L1 [1]): 1.4 - 1.5
- Activity (3T3-L1 [2]): 8%

Compound: O[C@H]1[C@H](O)[C@H](O)C[C@H](O)[C@H]1O
- fold change (FC) (3T3-L1 [1]): 1.3
- Activity (3T3-L1 [2]): 40%

Compound: O[C@@H]1[C@@H](O)[C@@H](O)C[C@H](O)[C@H]1O
- fold change (FC) (3T3-L1 [1]): 1.3
- Activity (3T3-L1 [2]): 22%

Compound: CCCCO[C@H]1[C@@H](O)[C@H](O)[C@H](O)[C@@H](O)[C@@H]1O
- fold change (FC) (3T3-L1 [1]): 1.4
- Activity (3T3-L1 [2]): 22%

Compound: O[C@H]1[C@H](O)[C@H](O)[C@@H](O)[C@H](O)[C@H]1O
- fold change (FC) (3T3-L1 [1]): 1.4 - 2.8
- Activity (3T3-L1 [2]): 64%

Compound: O[C@H]1[C@H](O)[C@@H](O)[C@H](O)[C@H](O)[C@H]1O
- fold change (FC) (3T3-L1 [1]): 1.5 - 3
- Activity (3T3-L1 [2]): 43%

Compound: OC1[C@@H](O)[C@H](O)C[C@@H](O)[C@@H]1O (stereo partly specified)
- fold change (FC) (3T3-L1 [1]): 0.5
- Activity (3T3-L1 [2]): -106%

Compound: CCCC(=O)O[C@H]1[C@H](O)[C@@H](O)[C@@H](O)[C@H](O)[C@@H]1O
- fold change (FC) (3T3-L1 [1]): 1.3
- Activity (3T3-L1 [2]): 19%
